Measurements taken from publication PMC11435058, “Synthesis of New Thiazole-Privileged Chalcones as Tubulin Polymerization Inhibitors with Potential Anticancer Activities” (Pharmaceuticals, 2024).

Experiments:
[1] = tested on: COLO 205; experiment: NCI-60 anticancer screen (SRB; single dose and five doses); details: Homo sapiens
[2] = tested on: HCT-116; experiment: as above; details: Homo sapiens
[3] = tested on: OVCAR-8; experiment: as above; details: Homo sapiens
[4] = tested on: K-562; experiment: as above; details: Homo sapiens
[5] = tested on: ACHN; experiment: as above; details: Homo sapiens
[6] = tested on: HCT-15; experiment: as above; details: Homo sapiens
[7] = tested on: IGROV1; experiment: as above; details: Homo sapiens
[8] = tested on: NCI-H226; experiment: as above; details: Homo sapiens
[9] = tested on: 60 human tumor cell lines panel; experiment: NCI-60 anticancer screen, whole panel (means and ranges over the cell lines); type: cell-based
[10] = tested on: HOP-92; experiment: NCI-60 anticancer screen (SRB; single dose and five doses); details: Homo sapiens
[11] = tested on: HS 578T; experiment: as above; details: Homo sapiens
[12] = tested on: MDA-MB-468; experiment: as above; type: cell-based, human
How it was run: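 Readout was sulforhodamine B staining, read spectrophotometrically as percent growth against untreated controls. This followed a 48 h exposure to one 10μM dose across roughly 60 human tumor lines of the NCI screen.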

[13] = tested on: UO-31; experiment: as above; details: Homo sapiens
[14] = tested on: MCF7; experiment: as above; details: Homo sapiens
[15] = tested on: EKVX; experiment: as above; details: Homo sapiens
[16] = tested on: U251; experiment: as above; details: Homo sapiens
[17] = tested on: OVCAR-3; experiment: cells; details: Homo sapiens
[18] = tested on: HT29; experiment: NCI-60 anticancer screen (SRB; single dose and five doses); details: Homo sapiens
[19] = tested on: SF-268; experiment: as above; details: Homo sapiens
[20] = tested on: NCI-H522; experiment: as above; details: Homo sapiens
[21] = tested on: UACC-62; experiment: as above; details: Homo sapiens
[22] = tested on: SK-MEL-2; experiment: as above; details: Homo sapiens
[23] = tested on: SNB-75; experiment: as above
[24] = tested on: CAKI-1; experiment: as above; details: Homo sapiens
[25] = tested on: NCI-H322M; experiment: as above; details: Homo sapiens
[26] = 48 h, read-out: Growth Percentage
[27] = five doses, mean graph midpoint over all cell lines

## Cc1[nH]c(=S)sc1C(=O)/C=C/c1cccc([N+](=O)[O-])c1 [2h, (E)-1-(4-Methyl-2-Thioxo-2,3-Dihydrothiazol-5-yl)-3-(3-Nitrophenyl)Prop-2-En-1-One]
[1]; COLO 205
  GI50: 5.75 µM
  IC50: 8.71 µM
[1]; COLO 205, 48 h, read-out: Growth Percentage
  activity at 10 µM: -24.9%
[1]; COLO 205, read-out: LC50
  CC50: 51.3 µM
[1]; COLO 205, read-out: TGI
  IC (TGI): 19.1 µM
[2]; HCT-116
  GI50: 2880 nM
  IC50: 3.31 µM
[2]; HCT-116, 48 h, read-out: Growth Percentage
  activity at 10 µM: -6.25%
[2]; HCT-116, read-out: LC50
  CC50: > 100 µM
[2]; HCT-116, read-out: TGI
  IC (TGI): > 100 µM
[3]; OVCAR-8
  GI50: 3.31 µM
  IC50: 4.57 µM
[3]; OVCAR-8, 48 h, read-out: Growth Percentage
  activity at 10 µM: 13.4%
[3]; OVCAR-8, read-out: LC50
  CC50: 38 µM
[3]; OVCAR-8, read-out: TGI
  IC (TGI): 11.8 µM
[4]; K562
  GI50: 3.09 µM
  IC50: 3.72 µM
[4]; K562, 48 h, read-out: Growth Percentage
  activity at 10 µM: 13.8%
[4]; K562, read-out: LC50
  CC50: > 100 µM
[4]; K562, read-out: TGI
  IC (TGI): > 100 µM
[5]
  GI50: 4.07 µM
  IC50: 6.17 µM
[5]; [26]
  activity at 10 µM: -58.4%
[5]; read-out: LC50
  CC50: 38.9 µM
[5]; read-out: TGI
  IC (TGI): 14.8 µM
[6]; HCT-15
  GI50: 2140 nM
  IC50: 3.47 µM
[6]; HCT-15, 48 h, read-out: Growth Percentage
  activity at 10 µM: -36.4%
[6]; HCT-15, read-out: LC50
  CC50: 31.6 µM
[6]; HCT-15, read-out: TGI
  IC (TGI): 7.76 µM
[7]; IGROV-1
  GI50: 3.02 µM
  IC50: 4.9 µM
[7]; IGROV-1, 48 h, read-out: Growth Percentage
  activity at 10 µM: 10.2%
[7]; IGROV-1, read-out: LC50
  CC50: 47.9 µM
[7]; IGROV-1, read-out: TGI
  IC (TGI): 12.3 µM
[8]; NCI-H226
  GI50: 11.2 µM
  IC50: 33.1 µM
[8]; NCI-H226, 48 h, read-out: Growth Percentage
  activity at 10 µM: -41.9%
[8]; NCI-H226, read-out: LC50
  CC50: > 100 µM
[8]; NCI-H226, read-out: TGI
  IC (TGI): 38 µM
[9]; Homo sapiens, 48 h, mean over the tested cell lines, dose of 10 μM, read-out: Mean growth percentage
  activity at 10 µM: -21.8%
[9]; [27]
  Log10GI50 _MID: -5.37 Molar
  Log10LC50 _MID: -4.34 Molar
  Log10TGI _MID: -4.82 Molar
[10]; HOP-92
  GI50: 3.89 µM
  IC50: 22.4 µM
[10]; HOP-92, read-out: LC50
  CC50: 44.7 µM
[10]; HOP-92, read-out: TGI
  IC (TGI): 16.6 µM
[11]
  GI50: 17.4 µM
  IC50: 67.6 µM
[11]; [26]
  activity at 10 µM: 24.5%
[11]; read-out: LC50
  CC50: > 100 µM
[11]; read-out: TGI
  IC (TGI): 52.5 µM
[12]; Homo sapiens, 48 h, MDA-MB-468, dose of 10 μM, read-out: Growth Percentage
  activity at 10 µM: -82.9%
[12]; Homo sapiens, MDA-MB-468, MDA-MB-468, Breast Cancer, five dose
  IC50: 7.76 µM
[12]; Homo sapiens, MDA-MB-468, Breast Cancer, five dose
  GI50: 2950 nM
[12]; Homo sapiens, MDA-MB-468, Breast Cancer, five dose, read-out: LC50 (the source's name)
  CC50: 40.7 µM
[12]; MDA-MB-468, Breast Cancer, five dose
  TGI: 10.72 µM
[13]; UO-31
  GI50: 3.89 µM
  IC50: 10.7 µM
[13]; UO-31, 48 h, read-out: Growth Percentage
  activity at 10 µM: -89.6%
[13]; UO-31, read-out: LC50
  CC50: 43.6 µM
[13]; UO-31, read-out: TGI
  IC (TGI): 17 µM
[14]; MCF7
  GI50: 2750 nM
  IC50: 6.31 µM
[14]; MCF7, 48 h, read-out: Growth Percentage
  activity at 10 µM: -45.4%
[14]; MCF7, read-out: LC50
  CC50: 38 µM
[14]; MCF7, read-out: TGI
  IC (TGI): 9.77 µM
[15]
  GI50: 5.75 µM
  IC50: 15.1 µM
[15]; [26]
  activity at 10 µM: 0.65%
[15]; read-out: LC50
  CC50: 46.8 µM
[15]; read-out: TGI
  IC (TGI): 19.5 µM
[16]; U-251
  GI50: 1740 nM
  IC50: 3.09 µM
[16]; U-251, 48 h, read-out: Growth Percentage
  activity at 10 µM: -76%
[16]; U-251, read-out: LC50
  CC50: 5.89 µM
[16]; U-251, read-out: TGI
  IC (TGI): 3.24 µM
[17]; OVCAR-3
  GI50: 2400 nM
[17]; OVCAR-3, 48 h, read-out: Growth Percentage
  activity at 10 µM: -79.5%
[17]; OVCAR-3, five-dose, Ovarian Cancer OVCAR-3
  IC50: 4.37 µM
[17]; OVCAR-3, read-out: LC50
  CC50: 24 µM
[17]; OVCAR-3, read-out: TGI
  IC (TGI): 6.46 µM
[18]; HT-29
  GI50: 5.5 µM
  IC50: 7.24 µM
[18]; HT-29, 48 h, read-out: Growth Percentage
  activity at 10 µM: 20.4%
[18]; HT-29, read-out: LC50
  CC50: 60.3 µM
[18]; HT-29, read-out: TGI
  IC (TGI): 19.9 µM
[19]; SF-268
  GI50: 10.5 µM
  IC50: 19.1 µM
[19]; SF-268, 48 h, read-out: Growth Percentage
  activity at 10 µM: 27.5%
[19]; SF-268, read-out: LC50
  CC50: 57.5 µM
[19]; SF-268, read-out: TGI
  IC (TGI): 24.6 µM
[20]; NCI-H522
  GI50: 5.01 µM
  IC50: 11.8 µM
[20]; NCI-H522, 48 h, read-out: Growth Percentage
  activity at 10 µM: -58.8%
[20]; NCI-H522, read-out: LC50
  CC50: 46.8 µM
[20]; NCI-H522, read-out: TGI
  IC (TGI): 17.8 µM
[21]; UACC-62
  GI50: 3.55 µM
  IC50: 7.94 µM
[21]; UACC-62, 48 h, read-out: Growth Percentage
  activity at 10 µM: -56.7%
[21]; UACC-62, read-out: LC50
  CC50: 41.7 µM
[21]; UACC-62, read-out: TGI
  IC (TGI): 15.8 µM
[22]; SK-MEL-2
  GI50: 12.6 µM
  IC50: 26.9 µM
[22]; SK-MEL-2, 48 h, read-out: Growth Percentage
  activity at 10 µM: 16.9%
[22]; SK-MEL-2, read-out: LC50
  CC50: 53.7 µM
[22]; SK-MEL-2, read-out: TGI
  IC (TGI): 26.3 µM
[23]; Homo sapiens, SNB-75
  GI50: 2290 nM
  IC50: 8.51 µM
[23]; Homo sapiens, SNB-75, read-out: LC50
  CC50: 27.5 µM
[23]; five-dose, CNS Cancer SNB-75
  TGI: 7.41 µM
[24]; CAKI-1
  GI50: 10.5 µM
  IC50: 20.4 µM
[24]; CAKI-1, 48 h, read-out: Growth Percentage
  activity at 10 µM: -56.5%
[24]; CAKI-1, read-out: LC50
  CC50: 51.3 µM
[24]; CAKI-1, read-out: TGI
  IC (TGI): 22.9 µM
[25]
  GI50: 8.71 µM
  IC50: 17.4 µM
[25]; [26]
  activity at 10 µM: 28.9%
[25]; read-out: LC50
  CC50: 50.1 µM
[25]; read-out: TGI
  IC (TGI): 21.9 µM
